Measured values as given in patent US5846755A (priority 1995, dated 1998).

Target: enzyme purified from the venom of Crotalus Adamanteus (hemorrhagin) (Crotalus adamanteus, UniProt P34179)
Test: not given
Assay type: biochemical
Settings: not given

Sequence of enzyme purified from the venom of Crotalus Adamanteus (hemorrhagin) (P34179 whole entry, looked up): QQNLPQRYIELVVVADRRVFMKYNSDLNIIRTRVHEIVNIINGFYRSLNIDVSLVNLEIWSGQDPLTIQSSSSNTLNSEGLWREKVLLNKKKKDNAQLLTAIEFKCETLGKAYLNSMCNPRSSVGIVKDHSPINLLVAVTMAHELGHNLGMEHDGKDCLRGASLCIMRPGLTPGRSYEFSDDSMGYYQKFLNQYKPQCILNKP

Compound	IC50 [µM]
COc1ccc2[nH]c(C(=O)N[C@@H](CC3CCCCC3)C(=O)N3Cc4[nH]c5ccccc5c4C[C@H]3C(=O)O)cc2c1 [Compound 1, 5--MIC--Cha--(S)--Cyt--OH]	0.029
COc1ccc2[nH]c(C(=O)N[C@@H](CC(C)C)C(=O)N3Cc4[nH]c5ccccc5c4C[C@H]3C(=O)O)cc2c1 [Compound 17, 5-MIC--(L)--Leu--(S)--Cyt--OH]	0.023

Same assay, conditions: read-out: IC50

Compound	IC50 [µM]
BZS--(L)--Phe--(S)--Cyt--OH [Compound 32]	2
COc1ccc(C(=O)N[C@@H](CC(C)C)C(=O)N2Cc3[nH]c4ccccc4c3C[C@H]2C(=O)O)cc1OC [Compound 30, 3,4-DMB--(L)--Leu--(S)--Cyt--OH]	0.38
CC(C)C[C@H](NC(=O)c1ccc(Cl)cc1)C(=O)N1Cc2[nH]c3ccccc3c2C[C@H]1C(=O)O [Compound 27, 4-CBZ--(L)--Leu--(S)--Cyt--OH]	0.1
COc1ccc2[nH]c(C(=O)N[C@@H](Cc3ccccc3)C(=O)N3Cc4[nH]c5ccccc5c4C[C@H]3C(=O)O)cc2c1 [Compound 8, 5-MIC--(L)--Phe--(S)--Cyt--OH]	0.1
NC(=O)C[C@H](NC(=O)c1ccco1)C(=O)N1Cc2[nH]c3ccccc3c2C[C@H]1C(=O)O [Compound 35, 2-FUR--(L)--Asn--(S)--Cyt--OH]	8
COc1ccc2[nH]c(C(=O)N[C@@H](Cc3c[nH]c4ccccc34)C(=O)N3Cc4[nH]c5ccccc5c4C[C@H]3C(=O)O)cc2c1 [Compound 14, 5-MIC--(L)--Trp--(S)--Cyt--OH]	0.047
CC(C)C[C@H](NC(=O)CSc1ccncc1)C(=O)N1Cc2[nH]c3ccccc3c2C[C@H]1C(=O)O [Compound 3, 4-PTA--(L)--Leu--(S)--Cyt--OH]	0.36
COc1ccccc1CC(=O)N[C@@H](CC(C)C)C(=O)N1Cc2[nH]c3ccccc3c2C[C@H]1C(=O)O [Compound 19, 2-MPA--(L)--Leu--(S)--Cyt--OH]	0.26
COc1ccc2c(c1)C(CC(=O)NC(CC(C)C)C(=O)N1Cc3[nH]c4ccccc4c3CC1C(=O)O)CC2=O (mixture of isomers) [Compound 23, 5-MIA--(L)--Leu--(S)--Cyt--OH]	0.075
O=C(NCCCC[C@H](NC(=O)c1ccco1)C(=O)N1Cc2[nH]c3ccccc3c2C[C@H]1C(=O)O)OCC1c2ccccc2-c2ccccc21 [Compound 36, 2-FUR--(L)--Lys(Fmoc)--(S)--Cyt--OH]	0.1
CCOc1ccccc1C(=O)N[C@@H](CC(C)C)C(=O)N1Cc2[nH]c3ccccc3c2C[C@H]1C(=O)O [Compound 20, 2-EBZ--(L)--Leu--(S)--Cyt--OH]	0.13
2-FUR--(L)--Phe--(S)--Cyt--OH [Compound 11]	0.053
COc1ccc(C(=O)N[C@@H](CC(C)C)C(=O)N2Cc3[nH]c4ccccc4c3C[C@H]2C(=O)O)c(OC)c1 [Compound 24, 2,4-Dimethoxybenzoyl--(L)--Leu--(S)--Cyt--OH]	0.098
CC(C)C[C@H](NC(=O)c1cc2cc(O)ccc2[nH]1)C(=O)N1Cc2[nH]c3ccccc3c2C[C@H]1C(=O)O [Compound 7, 5-HIC--(L)--Leu--(S)--Cyt--OH]	0.023
CC(C)C[C@H](NC(=O)c1cccnc1)C(=O)N1Cc2[nH]c3ccccc3c2C[C@H]1C(=O)O [Compound 28, 3-NIC--(L)--Leu--(S)--Cyt--OH]	0.1

Target: T1, recombinant human gelatinase A (Homo sapiens, UniProt P08253)
T1 construct: purchased Strangeways Laboratories, Cambridge, UK
T1 sequence (P08253 110-660): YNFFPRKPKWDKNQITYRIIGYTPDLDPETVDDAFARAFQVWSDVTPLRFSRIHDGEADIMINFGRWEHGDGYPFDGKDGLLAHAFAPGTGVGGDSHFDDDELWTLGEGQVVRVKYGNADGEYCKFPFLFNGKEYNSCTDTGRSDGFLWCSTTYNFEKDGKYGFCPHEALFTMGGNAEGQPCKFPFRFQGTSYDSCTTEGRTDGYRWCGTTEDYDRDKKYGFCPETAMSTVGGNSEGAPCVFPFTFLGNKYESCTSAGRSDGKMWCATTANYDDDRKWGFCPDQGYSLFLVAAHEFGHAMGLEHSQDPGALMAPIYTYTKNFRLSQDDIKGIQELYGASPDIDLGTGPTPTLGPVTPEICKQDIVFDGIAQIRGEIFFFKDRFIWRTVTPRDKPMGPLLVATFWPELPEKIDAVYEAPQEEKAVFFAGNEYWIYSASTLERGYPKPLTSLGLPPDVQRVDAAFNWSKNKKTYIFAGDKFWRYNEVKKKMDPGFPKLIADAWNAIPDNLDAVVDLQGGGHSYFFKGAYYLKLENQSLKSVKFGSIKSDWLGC
Test: In vitro effects on recombinant human gelatinase A
Assay type: biochemical
Settings: Concentration 6.0 × 10^-7 M
Text: Assays on human gelatinase A, an enzyme released in high concentration by any kind of tumor cells during the process of metastatization, and recognized also as a product of stimulated cells in many pathological processes, have been performed using the protein obtained by recombinant biotechnology (Strangeways Laboratories, Cambridge, UK). The enzymatic activity has been followed over time, measuring the amount of fluorescent substrate cleaved by the enzyme, in the presence or absence of synthetic compounds (Perkin Elmer L50 B fluorimeter).

Compound	% Inhibition [%]
COc1ccc2[nH]c(C(=O)N[C@@H](Cc3c[nH]c4ccccc34)C(=O)N3Cc4[nH]c5ccccc5c4C[C@H]3C(=O)O)cc2c1 [Compound 14, 5-MIC--(L)--Trp--(S)--Cyt--OH]	37

Same assay, conditions: Concentration 7.0 × 10^-7 M

Compound	inhibition at 0.7 µM [%]
COc1ccc2[nH]c(C(=O)N[C@@H](CC3CCCCC3)C(=O)N3Cc4[nH]c5ccccc5c4C[C@H]3C(=O)O)cc2c1 [Compound 1, 5--MIC--Cha--(S)--Cyt--OH]	25

Same assay, conditions: Concentration 8.0 × 10^-7 M

Compound	% Inhibition [%]
COc1ccc2c(c1)C(CC(=O)NC(CC(C)C)C(=O)N1Cc3[nH]c4ccccc4c3CC1C(=O)O)CC2=O (mixture of isomers) [Compound 23, 5-MIA--(L)--Leu--(S)--Cyt--OH]	40

Same assay, conditions: Concentration 8.7 × 10^-7 M

Compound	% Inhibition [%]
2-FUR--(L)--Phe--(S)--Cyt--OH [Compound 11]	40

Target: T2, recombinant human gelatinase B (Homo sapiens, UniProt P14780)
T2 construct: purchased Stangeways Laboratories, Cambridge, UK (so in the source)
T2 sequence (P14780 94-707): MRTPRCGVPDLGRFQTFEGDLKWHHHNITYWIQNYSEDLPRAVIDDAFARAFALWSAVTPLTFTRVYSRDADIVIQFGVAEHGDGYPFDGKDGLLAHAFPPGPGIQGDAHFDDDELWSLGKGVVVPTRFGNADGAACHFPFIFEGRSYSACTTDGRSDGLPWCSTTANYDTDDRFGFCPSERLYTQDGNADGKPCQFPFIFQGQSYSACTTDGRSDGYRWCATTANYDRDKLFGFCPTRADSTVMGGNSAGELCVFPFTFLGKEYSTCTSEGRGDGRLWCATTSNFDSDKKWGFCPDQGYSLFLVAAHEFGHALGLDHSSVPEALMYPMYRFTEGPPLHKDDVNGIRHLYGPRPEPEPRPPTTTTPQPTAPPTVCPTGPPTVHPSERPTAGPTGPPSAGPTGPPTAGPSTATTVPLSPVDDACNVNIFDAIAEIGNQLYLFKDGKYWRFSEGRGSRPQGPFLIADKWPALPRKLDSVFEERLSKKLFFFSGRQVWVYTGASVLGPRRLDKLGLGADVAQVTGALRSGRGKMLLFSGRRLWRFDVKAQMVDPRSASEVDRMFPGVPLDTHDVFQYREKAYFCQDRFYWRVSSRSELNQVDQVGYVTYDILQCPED
Test: In vitro effects on recombinant human gelatinase B
Assay type: biochemical
Settings: Concentration 1.0 × 10^-5 M
Procedure: Assays on human gelatinase B, another enzyme released by tumor cells, were performed using also, in this case, the protein obtained by recombinant biotechnology Stangeways Laboratories, Cambridge, UK). As usual, the enzymatic activity was followed over time, measuring the amount of fluorescent substrate cleaved by the enzyme, in the presence or absence of synthetic compounds (Perkin Elmer L50 B fluorimeter).

Compound	% Inhibition [%]
BZS--(L)--Phe--(S)--Cyt--OH [Compound 32]	42
COc1ccc(C(=O)N[C@@H](CC(C)C)C(=O)N2Cc3[nH]c4ccccc4c3C[C@H]2C(=O)O)c(OC)c1 [Compound 24, 2,4-Dimethoxybenzoyl--(L)--Leu--(S)--Cyt--OH]	48

Target: neutrophil collagenase (recombinant human) (Homo sapiens, UniProt P22894)
Sequence (P22894 101-467): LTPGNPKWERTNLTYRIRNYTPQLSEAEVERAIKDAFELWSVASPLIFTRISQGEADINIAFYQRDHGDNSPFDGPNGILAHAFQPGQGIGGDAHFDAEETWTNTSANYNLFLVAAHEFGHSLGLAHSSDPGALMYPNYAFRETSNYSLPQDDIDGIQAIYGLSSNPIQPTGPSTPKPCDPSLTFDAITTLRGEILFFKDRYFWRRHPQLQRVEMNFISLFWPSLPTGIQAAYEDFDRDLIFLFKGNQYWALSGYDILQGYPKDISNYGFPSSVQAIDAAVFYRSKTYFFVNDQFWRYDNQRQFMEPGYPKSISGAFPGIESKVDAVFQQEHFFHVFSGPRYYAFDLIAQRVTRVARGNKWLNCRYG
Test: In vitro assays on recombinant human collagenase
Assay type: biochemical
Settings: Concentration 2.0 × 10^-5 M
Procedure: Using the same enzymatic determination already described (fluorimetric detection of cleavage of a substrate peptide containing a fluorescent moiety), some of the compounds were tested on neutrophil collagenase, an enzyme described as participating in any kind of inflammatory reaction in mammalian bodies. In this case, the purified enxzyme was also obtained by recombinant means.

Compound	% Inhibition [%]
COc1ccc(C(=O)N[C@@H](CC(C)C)C(=O)N2Cc3[nH]c4ccccc4c3C[C@H]2C(=O)O)c(OC)c1 [Compound 24, 2,4-Dimethoxybenzoyl--(L)--Leu--(S)--Cyt--OH]	19

Same assay, conditions: Concentration 2.1 × 10^-5 M

Compound	% Inhibition [%]
CC(C)C[C@H](NC(=O)c1ccc(Cl)cc1)C(=O)N1Cc2[nH]c3ccccc3c2C[C@H]1C(=O)O [Compound 27, 4-CBZ--(L)--Leu--(S)--Cyt--OH]	28

Same assay, conditions: Concentration 2.2 × 10^-5 M

Compound	% Inhibition [%]
2-FUR--(L)--Phe--(S)--Cyt--OH [Compound 11]	27

Tested on: human melanoma cell line VMM-5
Test: Matrigel-based invasion assay with human melanoma cells
Assay type: cell-based
Settings: Concentration 500 micro M, VMM-5 cells, 20 hours
Text: In order to obtain information about the possible interference of the synthesized compounds on the ability of tumor cells to migrate through the body (metastatization), the human melanoma cell line VMM-5 was used in the matrigel-based invasion assay, in which basal membrane matrigel (Becton Dickinson) and tissue culture inserts with 8 microns pore size in 24 well tissue culture plates were used as Boyden chambers. The chambers were coated with diluted matrigel and allowed to dry overnight; they were then reconstituted with serum free medium, and melanoma cells (4,000,000/ml) were dispensed in each insert. In the lower chambers, a chemoattractant was included. The chambers were finally placed in a humidified CO2 incubator at 37° C., and incubated for 20 hours. The inserts were dried and the cells on the upper surface removed. The polycarbonate filters were fixed with methanol, stained with hematoxylin and eosin, and counted with a microscope. Inhibition of migration due to compounds has been expressed as a percentage of the total number of migrated cells in the control chambers containing only the buffer in which the compounds were dissolved.

Compound	% Inhibition of Invasion [%]
CC(C)C[C@H](NC(=O)CSc1ccncc1)C(=O)N1Cc2[nH]c3ccccc3c2C[C@H]1C(=O)O [Compound 3, 4-PTA--(L)--Leu--(S)--Cyt--OH]	69
COc1ccc(C(=O)N[C@@H](CC(C)C)C(=O)N2Cc3[nH]c4ccccc4c3C[C@H]2C(=O)O)c(OC)c1 [Compound 24, 2,4-Dimethoxybenzoyl--(L)--Leu--(S)--Cyt--OH]	100

Tested on: not listed separately
Test: Resistance to proteolytic activity in stomach juices (rat stomach homogenate, HPLC)
Settings: 37° C., 60 minutes
Procedure: To check if the compounds of the present invention are resistant to proteolytic activity in stomach juices and, therefore, could be administered orally, the stomachs of fasting rats were homogenized in physiological solutions (1:1). 300 microliters of solutions of the compounds (1 mg/ml of saline) were incubated with 0.5 ml of stomach homogenates (37° C.).

Compound	Residue after 60 Minutes [%]
COc1ccc(C(=O)N[C@@H](CC(C)C)C(=O)N2Cc3[nH]c4ccccc4c3C[C@H]2C(=O)O)cc1OC [Compound 30, 3,4-DMB--(L)--Leu--(S)--Cyt--OH]	100
CC(C)C[C@H](NC(=O)CSc1ccncc1)C(=O)N1Cc2[nH]c3ccccc3c2C[C@H]1C(=O)O [Compound 3, 4-PTA--(L)--Leu--(S)--Cyt--OH]	100
2-FUR--(L)--Phe--(S)--Cyt--OH [Compound 11]	100

Same assay, conditions: 37° C., 120 minutes

Compound	Residue after 120 Minutes [%]
COc1ccc(C(=O)N[C@@H](CC(C)C)C(=O)N2Cc3[nH]c4ccccc4c3C[C@H]2C(=O)O)cc1OC [Compound 30, 3,4-DMB--(L)--Leu--(S)--Cyt--OH]	> 95
CC(C)C[C@H](NC(=O)CSc1ccncc1)C(=O)N1Cc2[nH]c3ccccc3c2C[C@H]1C(=O)O [Compound 3, 4-PTA--(L)--Leu--(S)--Cyt--OH]	> 95
2-FUR--(L)--Phe--(S)--Cyt--OH [Compound 11]	> 95
